The values below come from publication PMC12824250 (Nature Communications, 2025).

Assay [1] concerns rdMPXV^Δ96,158. Description: microbe, parasite or virus in culture. Type of assay: cell-based. The settings on record: Monkeypox virus, 30 h.
Assay [2] concerns rdMPXV^Δ96,158. Type of assay: cell-based.
Assay [3] has as its system VACV. The settings on record: in vivo; cited from earlier work.
For assay [4], the system named is VACV. The settings on record: cited from earlier work.

The term EC50 denotes the concentration needed to bring the measured effect to its halfway point. A lower EC50 goes with an effect from little substance. The compound `Nc1ccn(C[C@@H](CO)OCP(=O)(O)O)c(=O)n1` [Cidofovir] showed an EC50 in the assay with rdMPXV^Δ96,158 [1] of 10.5 µM. Also, in the assay with rdMPXV^Δ96,158 [2], the Gaussia luciferase activity entry was “reduced Gaussia luciferase activity” and the “mean fluorescence intensity of mGreen-positive cells” value is “showed decreased intensity”.

For the compound `Cc1cc(C(=O)NNC(=O)c2ccncc2)ccc1Cl` [IMCBH, N1-isonicotinoly-N2-3-methyl-4-chlorobenzoylhydrazine], in the assay on VACV [3], the “protection from VACV infection” value is “failed to protect”. The “cytopathic effect (CPE) inhibition” value with VACV [4] is listed as “complete cytopathic effect (CPE) inhibition”.
